Experimental data from patent publication US12533345B2 (AARHUS UNIVERSITET, priority 2015, dated 2026).
Where two headings read alike, the source gives them in different places.

Key:
[1] = system: non-myotonic rat soleus muscles; test: Contractile force in non-myotonic isolated rat soleus muscles; format: cell-based; conditions: three hrs incubation, 5 and 60 Hz stimulation, similar to time-matched controls
Method: To first test for effects of the three drugs (RUF, LCM and LTG) on force in non-myotonic rat soleus muscles, muscles were exposed to 2 s stimulations at both 5 Hz and 60 Hz every 10 mins during three hrs of drug incubation. The drug concentrations were the highest free concentrations that are tolerated clinically: For both 5 and 60 Hz stimulation, incubation with 5 μM LCM reduced force by ˜6-8% in two muscles. With 25 μM LTG force was reduced by ˜6% in three muscles, and with 100 μM RUF force was reduced by 4% in three muscles. In all cases, these reductions in force during the three hours were similar to reductions observed in time-matched control muscles.

[2] = system: isolated human abdominal rectus muscle; test: Myotonia (tail AUC) in 9AC-treated bundles of isolated human abdominal rectus muscle; format: cell-based; conditions: for EC50: Homo sapiens, read-out: EC50 (concentration required to reduce AUC to 50% of maximal value); for Slope of fit: human muscle bundles, 3-parameter sigmoidal fit, mean ± SEM; for Ability to abolish myotonia: isolated human muscles, 9AC, increasing concentrations
Method: As in rat muscles myotonia was induced with 9-AC and quantified from the AUC as determined from the cessation of stimulation to force returned to baseline. […] C and D show similar data for RUF (n=4) and LTG (n=6), respectively.
The use of human muscles was approved by the Danish Ethics Committee, Region Midtjylland, Comité I (reference number Jan. 10, 1972-20-13) and was performed in accordance with the Helsinki Declaration. Informed consent was obtained from all subjects before inclusion. Muscles were obtained from 4 male subjects admitted in relation to planned aortic aneurysm surgery at Skejby hospital. […] After isolation the tissue was transported to the laboratory at the University (<30 min) in a HEPES based solution (pH 7.4) at ˜5° C. Upon arrival to the laboratory, the tissue was incubated in often-replaced fresh Krebs-Ringer bicarbonate solution equilibrated with 5% CO2 in oxygen at 30° C. for 10 to 20 min, before further dissection into smaller bundles of approx. 4 cm length weighing 515±61 mg. For contraction experiments, bundles were tied at both ends with polyester string, to enable mounting of the preparations in the setups for measurement of contractile force.
The experiments in FIG. 1 were repeated for small muscle bundles of human abdominal muscle. 9AC was used to induce myotonia and, subsequently, LCM, RUF or LTG were added at increasing concentrations. In all cases, myotonia was reduced with increased concentration of drug. […] Similar traces were obtained with LCM-and LTG-treated bundles of human muscle. FIG. 2B-D show data and sigmoidal fits from individual bundles with additions of LCM (n=5), RUF (n=5) and LTG (n=6), respectively.

rat EDL muscles = test: LDH release from stimulated 9AC-treated (myotonic) rat EDL muscles; format: cell-based; conditions: stimulation for 60 min, LDH followed 3 hrs after contraction
Method: In all cases a sample was taken before stimulation (Pre), the muscles were then stimulated to contraction for 2 s at 30 Hz by 0.2 ms pulses every 3 minutes for 60 min (20 stimulations) or left resting. Open symbols are from muscles incubated with 9AC±LTG or RUF. Solid triangles are from muscles incubated with 9AC without stimulation. Immediately after cessation of stimulation, a new sample was taken from solution incubating the muscles. For the next 180 minutes a sample was taken from the incubating solution every 30 minutes, as designated by the time after stimulation. The period from cessation of stimulation to 180 min after stimulation is termed recovery.
EDL muscles from rats were isolated and placed in small chambers with oxygenated as previously described in detail (Gissel H1, Clausen T. Excitation-induced Ca(2+) influx in rat soleus and EDL muscle: mechanisms and effects on cellular integrity. Am J Physiol Regul Integr Comp Physiol. 2000 279(3): R917-24).
To explore for an effect of myotonia on muscle fibre integrity and the effect of the drugs hereupon, the release of the intracellular protein from the muscle, lactate dehydrogenase (LDH), to the incubation solution was determined in contracting EDL muscles.

[3] = system: CIC-1 inhibited rat soleus muscles; test: Myotonia (tail AUC of force response) in 9AC-treated isolated rat soleus muscle; conditions: for EC50: Rattus norvegicus; for Reduction of myotonia within clinically observed concentration ranges: isolated muscle, species not stated at this place (study on rat and human); for Slope of fit / Ability to abolish myotonia: rat soleus; for Slope of fit: 3-parameter sigmoidal fit of AUC vs concentration; for Ability to abolish myotonia: 9AC, increasing concentrations
[4] = read-out: EC50 (concentration required to reduce AUC to 50% of maximal value), rat soleus, 100 μM 9AC, 15 Hz 2 s stimulation, 3-parameter sigmoidal fit, mean ± SEM, Table 1 prints no unit, b139 gives concentrations in μM
[5] = 10 min, read-out: EC50 (reduction of AUC), rat soleus, 100 μM 9AC, 15 Hz 2 s every 10 min, two muscles per compound

| SMILES | EC50 [2] [µM] | Slope of fit [2] | Ability to abolish myotonia [2] | Effect on myotonia-induced LDH release (muscle damage) (rat EDL muscles) | EC50 [3, 4] [µM] | Reduction of myotonia within clinically observed concentration ranges [3] [%] | Slope of fit ([3]; mean ± SEM) | Ability to abolish myotonia [3] | EC50 [3, 5] [µM] | other results |
| --- | --- | --- | --- | --- | --- | --- | --- | --- | --- | --- |
| Nc1nnc(-c2cccc(Cl)c2Cl)c(N)n1 [Lamotrigine, 6-(2,3-dichlorophenyl)-1,2,4-triazine-3,5-diamine] | 5.54 ± 0.88 | −0.30 ± 0.068 | completely abolish myotonia | Very similar effects | 1.52 ± 0.13 | 92±2 | −0.39 ± 0.042 | completely abolish myotonia |  | Reduction of force ([1]; 25 μM LTG): ~6%; AUC as % of the full myotonic state ([3]; 0.5 μM LTG (FIG. 3 A3)): 90%; Reduction of AUC (myotonia) ([3]; 2 μM LTG (FIG. 1 C3)): ~46%; Reduction of AUC (myotonia) ([3]; 16 μM LTG (FIG. 1 C4)): ~98% |
| NC(=O)c1cn(Cc2c(F)cccc2F)nn1 [Rufinamide, 1-(2,6-Difluorobenzyl)-1H-1,2,3-triazole-4-carboxamide] | 22.5 ± 1.73 | −0.33 ± 0.035 | completely abolish myotonia | completely blocked | 18.1 ± 1.84 | 92±2 | −0.29 ± 0.02 | completely abolish myotonia |  | Reduction of force ([1]; 100 μM RUF): 4%; Effect on myotonia ([2]; 80 μM RUF, single human muscle bundle, 100 μM 9AC (FIG. 2A)): almost full abolishment of myotonia; Reduction of AUC (myotonia) ([3]; 20 μM RUF, 9AC treated muscle (FIG. 1 B3)): more than 50%; Reduction of AUC (myotonia) ([3]; 100 μM RUF (FIG. 1 B4)): ~98%; EC50 ([3]; read-out: RUF concentration for AUC to be reduced by 50%, in presence of 0.5 μM LTG (n=6)): 7 µM; EC50 ([3]; read-out: RUF concentration for AUC to be reduced by 50%, pre-incubation with 1 μM LTG (n=4)): 3.1 µM; RUF concentration less than expected if RUF and LTG acted purely additively ([3]; isobole plot, 0.5 μM LTG): 5 µM; RUF concentration less than predicted by the assumption of additivity ([3]; isobole plot, 1 μM LTG): 3 µM; RUF concentration for half effect as % of concentration expected for additive action ([3]; with 0.5 μM or 1 μM LTG, both cases): around 50% |
| Cc1c(C(N)=O)nnn1Cc1ccccc1 [Compound 2, 1-benzyl-5-methyl-1H-1,2,3-triazole-4-carboxamide] |  |  |  |  |  |  |  | completely abolish myotonia | 19.1 |  |
| NC(=O)c1nnn(Cc2ccccc2)c1N [Compound 1, 5-amino-1-benzyl-1H-1,2,3-triazole-4-carboxamide] |  |  |  |  |  |  |  | completely abolish myotonia | 24.7 |  |
